Data taken from the NIST ThermoML archive (doi:10.1021/je5010643).

Assay: refractive index (Na D-line) (dimensionless); xn = mol fraction of the nth substance listed
Conditions: 101.32 kPa, Liquid, Standard Abbe refractometry

CC(C)C(=O)O [2-methylpropanoic acid] + C1COCCO1
refractive index
Conditions | x2 = 0 | x2 = 0.1 | x2 = 0.2 | x2 = 0.3 | x2 = 0.4 | x2 = 0.5 | x2 = 0.6 | x2 = 0.7 | x2 = 0.8 | x2 = 0.9
295.15 K | 1.3919 | 1.3955 | 1.3988 | 1.4021 | 1.4052 | 1.4082 | 1.411 | 1.4137 | 1.4161 | 1.4185
298.15 K | 1.3907 | 1.3942 | 1.3974 | 1.4007 | 1.4038 | 1.4068 | 1.4096 | 1.4122 | 1.4146 | 1.4171
301.15 K | 1.3895 | 1.3929 | 1.3961 | 1.3993 | 1.4024 | 1.4054 | 1.4082 | 1.4107 | 1.4132 | 1.4156
304.15 K | 1.3883 | 1.3916 | 1.3948 | 1.3979 | 1.401 | 1.4039 | 1.4067 | 1.4093 | 1.4117 | 1.4141
307.15 K | 1.3872 | 1.3904 | 1.3936 | 1.3967 | 1.3997 | 1.4026 | 1.4054 | 1.4079 | 1.4103 | 1.4127
310.15 K | 1.386 | 1.3891 | 1.3923 | 1.3953 | 1.3983 | 1.4011 | 1.4038 | 1.4063 | 1.4087 | 1.4112
313.15 K | 1.3849 | 1.3879 | 1.391 | 1.3941 | 1.397 | 1.3998 | 1.4025 | 1.4049 | 1.4073 | 1.4098
